Laboratory results reported in PMC10179080, “In Vivo and In Vitro Characterization of Close Analogs of Compound KA-11, a New Antiseizure Drug Candidate” (International Journal of Molecular Sciences, 2023).

Key:
[1] = molecular target: T1, CYP2D6 (Homo sapiens, UniProt P10635); experiment: CYP2D6 P450-Glo assay; type: in vitro ADME
T1 construct: purchased Promega, Madison, WI, USA
Description: (§1) The assays and protocols used for evaluating the KA-232 ADME-Tox parameters were similar to those described previously for compound KA-11 [6].
(§2) Figure 9 The effect of KA-232 and the reference drug ketoconazole (KE) on CYP3A4 activity (A). The effect of KA-232 and the reference drug quinidine (QD) on CYP2D6 activity (B). The effect of KA-232 and the reference cytostatic drug doxorubicin (DX) on the HepG2 cell line (C) and the SH-SY5Y cell line (D) viability. Statistical significance (* p < 0.05, **** p < 0.0001) was analyzed by Graph Pad Prism 8 software using one-way ANOVA and Bonferroni’s Multiple Comparison Post Test.

[2] = test system: seizure susceptibility in mice; experiment: Timed ivPTZ seizure threshold test; type: in vivo
Procedure: (§3) The experiments were conducted on adult male albino Swiss mice weighing 22–26 g. The animals were kept in colony cages under standardized laboratory conditions: natural light–dark cycle 12/12 h, temperature 20–24 °C, air humidity 45–65% and free access to tap water and food (chow pellets). After 7 days of adaptation to laboratory conditions, the animals were randomly assigned to experimental groups consisting of 8 mice. The experimental procedures described herein were approved by the Local Ethics Committee in Lublin, Poland (approval numbers: 71/2020 and 13/2021), and were conducted in accordance with EU Directive 2010/63/EU for animal experiments. All efforts were made to minimize animal suffering and to use only the number of animals necessary to produce reliable scientific data according to the 3Rs rule.
The timed ivPTZ seizure threshold test was carried out according to the method described by Socała et al.. KA-228 and KA-232 were suspended in a 1% solution of Tween 80 and administered i.p. 30 min before the test. In the experiment with KA-232, two separate control groups were used because the effects of KA-232 at a dose of 50 and 100 mg/kg were determined on different days.
(§4) The ED50 or TD50 values for tested substances in the acute animal models of seizures were calculated using the computer log-probit analysis. Subsequently, the ED50 and TD50 values (±SEM) were statistically analyzed using one-way analysis of variance (ANOVA) followed by the post hoc Dunnett’s test for multiple comparisons. Differences among values were considered statistically significant if p < 0.05. GraphPad Prism version 8 for Windows (GraphPad Software, San Diego, CA, USA) was used as a statistical software program. The results obtained from the acute ivPTZ test and grip strength test were evaluated by a Student’s t test. Fisher’s exact probability test was used to analyze protection from tonic forelimb and hindlimb extension in the ivPTZ test.
Figure 7 Effects of KA-11, KA-228 and KA-232 on the threshold for the first myoclonic twitch (A), generalized clonus (B) and forelimb tonus (C) in the ivPTZ test in mice. KA-228 and KA-232 were administered i.p., 30 min before seizure induction. Control animals received vehicle. Data are presented as means ± SD (mg/kg PTZ; n = 9–14 animals; the n value varies between groups because some animals were excluded from the study due to unsuccessful catheterization of the vein). The statistical significance for KA-228 and KA-232 was evaluated by a Student’s t test. Data for KA-11 were used from Socała et al. and re-analyzed using one-way ANOVA followed by Dunnett’s post hoc test. * p < 0.05, ** p < 0.01, *** p < 0.001, **** p < 0.0001 vs. the vehicle-treated group (GraphPad Prism 8).

[3] = molecular target: T2, Potassium channel (hERG) (Homo sapiens, UniProt Q12809); experiment: Radioligand binding, potassium channel (hERG); conditions: 100 µM; KA-11 value not published before
T2 construct: host or cells: HEK-293 cells
T2 sequence (Q12809 whole entry): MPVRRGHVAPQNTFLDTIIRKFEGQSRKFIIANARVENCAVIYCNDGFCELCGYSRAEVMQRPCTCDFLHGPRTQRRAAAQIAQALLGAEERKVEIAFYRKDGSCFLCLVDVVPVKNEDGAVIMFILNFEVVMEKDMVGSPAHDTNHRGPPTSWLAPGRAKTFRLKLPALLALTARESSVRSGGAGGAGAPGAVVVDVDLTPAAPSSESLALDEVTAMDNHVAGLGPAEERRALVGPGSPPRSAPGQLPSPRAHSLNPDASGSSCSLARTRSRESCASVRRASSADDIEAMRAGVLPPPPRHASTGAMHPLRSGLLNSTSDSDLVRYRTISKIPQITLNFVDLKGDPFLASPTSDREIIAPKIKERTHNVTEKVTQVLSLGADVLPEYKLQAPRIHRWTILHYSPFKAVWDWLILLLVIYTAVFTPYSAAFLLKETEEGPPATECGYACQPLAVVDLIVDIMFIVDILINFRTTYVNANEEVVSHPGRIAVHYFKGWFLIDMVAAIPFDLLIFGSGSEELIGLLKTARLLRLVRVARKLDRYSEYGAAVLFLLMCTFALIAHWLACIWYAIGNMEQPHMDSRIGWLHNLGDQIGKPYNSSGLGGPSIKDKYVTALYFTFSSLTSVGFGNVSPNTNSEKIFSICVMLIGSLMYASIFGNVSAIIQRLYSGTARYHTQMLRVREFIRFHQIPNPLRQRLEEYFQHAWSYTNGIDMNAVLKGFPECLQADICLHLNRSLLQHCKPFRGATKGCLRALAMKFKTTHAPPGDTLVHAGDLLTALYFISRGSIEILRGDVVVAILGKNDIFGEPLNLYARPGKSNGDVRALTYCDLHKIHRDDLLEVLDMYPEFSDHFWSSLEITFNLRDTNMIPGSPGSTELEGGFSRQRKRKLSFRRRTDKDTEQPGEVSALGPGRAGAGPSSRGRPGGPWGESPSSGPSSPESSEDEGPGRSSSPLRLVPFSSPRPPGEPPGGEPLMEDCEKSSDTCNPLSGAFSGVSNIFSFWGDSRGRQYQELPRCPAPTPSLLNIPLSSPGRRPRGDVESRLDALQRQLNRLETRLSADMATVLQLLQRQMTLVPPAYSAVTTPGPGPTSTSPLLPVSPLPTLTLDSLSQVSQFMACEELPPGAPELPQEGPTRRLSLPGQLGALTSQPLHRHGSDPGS
Procedure: (§5) Dysfunction of both sodium and calcium ion channels is known to be one of the crucial reasons behind the pathogenesis of seizures. Consequently, these ion channels are molecular targets for several clinically important ASDs such as lacosamide, lamotrigine, carbamazepine, oxcarbazepine and compounds currently under preclinical and clinical studies. Thus, for KA-228 and KA-232, we tested herein their binding profile toward the aforementioned ion channels at concentrations of 10 and 100 µM (Table 3). […] Apart from in vitro studies focused on explaining the mechanism of action, KA-232 was additionally tested for its interaction with the potassium channel (hERG) which is recognized as one of the most important ‘off-targets’ responsible for harmful arrhythmogenic activity. Thus, the interaction of potential drug candidates with hERG must be excluded at an early stage of development.
(§6) Binding studies were carried out commercially in Eurofins Laboratories (Poitiers, France or New Taipei City, Taiwan).

[4] = molecular target: T3, hERG potassium channel (Homo sapiens, UniProt Q12809); experiment: Radioligand binding, potassium channel (hERG); conditions: human, human recombinant HEK-293 cells expressing hERG, KA-11 value not published before, read-out: % Inhibition of Control Specific Binding
T3 construct: host or cells: HEK-293 cells
T3 sequence (Q12809 whole entry): as above
Procedure: as §5, §6

[5] = test system: Calcium Cav1.2 channels (dihydropyridine site, antagonist radioligand); experiment: Radioligand binding, Cav1.2 dihydropyridine site; set-up: species or system rat
Procedure: as §5, §6

[6] = molecular target: T4, CYP3A4 (Homo sapiens, UniProt P08684); experiment: CYP3A4 P450-Glo assay; type: in vitro ADME; conditions: 10 µM
T4 construct: purchased Promega, Madison, WI, USA
T4 sequence (P08684 whole entry): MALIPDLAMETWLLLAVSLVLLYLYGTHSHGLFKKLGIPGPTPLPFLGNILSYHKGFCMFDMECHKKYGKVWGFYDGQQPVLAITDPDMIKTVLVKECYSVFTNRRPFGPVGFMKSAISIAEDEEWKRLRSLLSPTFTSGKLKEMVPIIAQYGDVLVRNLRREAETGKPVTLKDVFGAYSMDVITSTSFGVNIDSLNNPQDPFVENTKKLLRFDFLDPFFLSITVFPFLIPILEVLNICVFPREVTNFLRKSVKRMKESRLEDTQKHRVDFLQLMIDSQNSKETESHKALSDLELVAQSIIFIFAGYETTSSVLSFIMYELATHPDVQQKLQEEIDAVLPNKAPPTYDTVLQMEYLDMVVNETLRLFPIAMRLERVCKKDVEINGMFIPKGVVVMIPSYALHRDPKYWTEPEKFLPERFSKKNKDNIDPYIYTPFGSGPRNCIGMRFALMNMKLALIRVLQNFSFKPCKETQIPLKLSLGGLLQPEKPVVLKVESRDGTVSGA
Description: as §1, §2

[7] = test system: neuroblastoma SH-SY5Y; experiment: Neurotoxicity, SH-SY5Y cell viability; type: cell-based, human
Description: as §1, §2

[8] = test system: tonic–clonic seizures in mice; experiment: Maximal electroshock seizure (MES) test; type: in vivo
Procedure: as §3
All substances (except PTZ and tetracaine hydrochloride dissolved in water for injections) were suspended in a 1% solution of Tween 80 (Sigma-Aldrich, Saint Louis, MO, USA) in water for injections (Baxter, Warszawa, Poland) or 0.9% NaCl. All drugs were injected intraperitoneally (i.p.) 30 min before all seizure models with 1 mL syringes as a single injection, in a volume of 10 mL/kg. The pretreatment time (30 min) before testing for KA-228 and KA-232 was chosen based on the time to peak of maximum anticonvulsant activity of KA-11 from our previous studies.
The tonic–clonic seizures in mice were evoked by an electric stimulus (an alternating current 25 mA, 50 Hz, maximum output voltage 500 V, 0.2 s) generated by a rodent shocker (Hugo Sachs Elektronik, Freiburg, Germany) and delivered via ear-clip electrodes. […] This experimental procedure has been described in detail in our previous studies.
as §4

[9] = in vitro; conditions: PAMPA
Procedure: Pre-coated PAMPA Plate System Gentest™ was purchased from Corning (Tewksbury, MA, USA). […] The luminescent signal and the absorbances were measured by using a microplate reader EnSpire PerkinElmer (Waltham, MA, USA). The LC/MS/MS analyses used in PAMPA and metabolic stability assays were obtained on Waters ACQUITY™ TQD system (Waters, Milford, CT, USA).

[10] = 50 mg/kg i.p., 30 min before ivPTZ

T1 sequence (P10635 whole entry): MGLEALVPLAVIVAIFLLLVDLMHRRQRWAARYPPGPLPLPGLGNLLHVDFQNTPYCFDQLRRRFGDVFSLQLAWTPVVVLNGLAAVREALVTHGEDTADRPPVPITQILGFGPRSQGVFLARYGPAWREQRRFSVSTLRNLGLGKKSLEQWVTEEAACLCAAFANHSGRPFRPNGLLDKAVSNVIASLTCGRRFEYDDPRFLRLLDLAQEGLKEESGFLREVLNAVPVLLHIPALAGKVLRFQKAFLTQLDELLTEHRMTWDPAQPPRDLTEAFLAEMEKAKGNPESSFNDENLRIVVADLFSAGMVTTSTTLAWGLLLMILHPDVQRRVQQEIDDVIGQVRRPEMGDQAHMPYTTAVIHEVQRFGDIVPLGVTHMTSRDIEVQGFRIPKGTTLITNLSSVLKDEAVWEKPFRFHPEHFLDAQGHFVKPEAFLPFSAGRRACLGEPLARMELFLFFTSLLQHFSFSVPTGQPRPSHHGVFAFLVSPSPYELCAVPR

For `CC(C(=O)N1CCN(c2cccc(C(F)(F)F)c2)CC1)N1C(=O)CC(N(C)C)C1=O.Cl` (stereo not shown) [KA-232, 3-(Dimethylamino)-1-(1-oxo-1-(4-(3-(trifluoromethyl)phenyl)piperazin-1-yl)propan-2-yl)pyrrolidine-2,5-dione hydrochloride], the “CYP2D6 activity (% of control ± SD)” value ([1]; 10 µM) was 100.96 ± 2.57 % of control, the “effect on CYP2D6 activity” value ([1]; at 0.1 and 1 µM) was “slight induction” and the “effect on threshold for forelimb tonus” value [2, 10] was “did not significantly affect”. The “effect on threshold for generalized clonus” value [2, 10] was “did not significantly affect”, the “effect on threshold for the first myoclonic twitch” value [2, 10] was “did not significantly affect” and the “mice in which hindlimb tonus did not occur” value ([2]; 50 mg/kg i.p., p < 0.01 vs. control) was 5 out of 9. For the same compound, the “effect on threshold for clonic seizures” value ([2]; 100 mg/kg i.p., p < 0.0001) was “slightly raised”, the “effect on threshold for myoclonic seizures” value ([2]; 100 mg/kg i.p., p < 0.001) was “slightly raised” and the “mice in which forelimb tonus was completely abolished” value ([2]; 100 mg/kg i.p., p < 0.01 vs. control) was 7 out of 11. The “% Inhibition of Control Specific Binding” value [3] was “did not interact”, the inhibition at 60 min, 100 µM [4] was 18.3% and the “% Inhibition of Control Specific Binding” value ([5]; 10 µM) was −6.3%. The “% Inhibition of Control Specific Binding” value ([5]; 100 µM) was 18.5%, the “CYP3A4 activity (% of control ± SD)” value [6] was 86.77 ± 5.71 % of control and the “SH-SY5Y viability (% of control ± SD)” value ([7]; 10 µM) was 99.44 ± 5.89 % of control. The “neurotoxic effect on SH-SY5Y cell line” value ([7]; all used doses) was “no neurotoxic effect”, the ED50 ([8]; Mus musculus, ip, 30 min before test, read-out: ED50 MES ± SD) was 61.8 ± 26.9 mg/kg and the “TI (TD50/ED50), MES” value ([8]; i.p.) was 2.63. It also gave a Papp at 5 h [9] of 10.2 ± 1.65 ×10⁻⁶ cm/s.
